Results as given in patent US20200338158A1, “Therapeutic Drug for Non-Alcoholic Fatty Liver Disease” (Shanghai Hep Pharmaceutical Co., Ltd., priority 2017, published 2020).
“Also recorded” adds a separate entry of the source.

How the values were obtained:
Assay type in all cases: in vivo
[1] = system: C57BL6 mice; assay: Glucose tolerance, fasting insulin and insulin resistance index, mouse NASH model; conditions: for blood glucose level in glucose tolerance test: treatment groups vs model group; for fasting serum insulin level / insulin resistance HOMA-RI level: vs model group
Text: As used herein, homeostatic model assessment (HOMA) index may refer HOMA-IR (quantifying the level of insulin resistance) index. The value of HOMA-IR can be calculated by following the formula of: HOMA-IR=[(blood glucose expressed in mmol/L)×(serum insulin expressed in mU/L)]/22.5.
(§1) In this example, a mouse nonalcoholic steatohepatitis (NASH) model was used to evaluate the effect of hepalatide (L47) on pathological changes and metabolism level of NASH, and to determine whether L47 can improve the pathological changes of NASH, so as to provide reference for pharmacodynamic evaluation of L47 before clinical treatment.
5.2.3 Insulin ELISA Test Kit, Cat No.: EZRMI-13K, Millipore Company.
At week 8 and week 16, fasting blood glucose and glucose tolerance (subcutaneous injection of glucose: 2.5 mg/g, preparation concentration: 250 mg/ml) were measured in mice, blood glucose levels were measured at 0, 30, 60, 90 and 120 min after the injection of glucose, and insulin resistance index was calculated according to the fasting insulin level.

[2] = system: C57BL6 mice; assay: Blood (serum) biochemistry test, mouse NASH model
Text: as §1
Total cholesterol (TC), triglyceride (TG), total bilirubin (TBIL), high-density lipoprotein cholesterol (HDL-C), low-density lipoprotein cholesterol (LDL-C), alkaline phosphatase (ALP), albumin (ALB), aspartate aminotransferase (AST) and alanine aminotransferase (ALT) were provided by Shanghai Adicon Company and tested by automatic biochemical analyzer.
Total bile acid (TBA), very low density lipoprotein (VLDL): provided by Nanjing Jiancheng Bioengineering Institute.
At week 8 and week 16, blood was taken from fasted mice (fasted for 12 hours) after anesthesia, and levels of serum TG, TC, ALB, ALP, ALT, AST, HDL-C, LDL-C, VLDL, TBIL, TBA, insulin (Ins) were measured.

[3] = system: C57BL6 mice; assay: Liver histology (HE, Oil Red O, Masson, TUNEL staining), mouse NASH model; conditions: for liver Masson staining (fibrous cords) / liver Oil Red O staining (fat accumulation) / liver Masson staining (fibrous depositions): vs model group
Description: as §1
At week 8 and week 16, hematoxylin eosin (HE) staining, trichrome staining (Masson staining), Oil Red 0 staining and apoptosis (TUNEL) staining were performed on the liver tissue sections of mice.

[4] = system: C57BL6 mice; assay: Mouse NASH model, overall conclusions at week 8 and week 16
Text: as §1
4.1.1 Normal control group (Control): common block feed+common water, 14 mice in total, wherein 6 mice were sacrificed at week 8, and 8 mice were sacrificed at week 16.
4.1.2 Model group (HFC-F/G): high fat feed+high sugar water, 9 mice in total, wherein 3 mice were sacrificed at week 8, and 6 mice were sacrificed at week 16.
4.1.3 Low dose group 1 (HFC-F/G+HL1): high fat feed+high sugar water+L47 20 mg/kg (10 mg/kg*2/d, i.e. once in the morning and once in the afternoon), 10 mice in total, wherein 3 mice were sacrificed at week 8, and 7 mice were sacrificed at week 16.
4.1.4 High dose group 1 (HFC-F/G+HH1): high fat feed+high sugar water+L47 60 mg/kg (30 mg/kg*2/d, i.e. once in the morning and once in the afternoon), 10 mice in total, wherein 3 mice were sacrificed at week 8, and 7 mice were sacrificed at week 16.
4.1.5 Low dose group 2 (HFC-F/G+HL2): high fat feed+high sugar water+L47 20 mg/kg (10 mg/kg*2/d, i.e. once in the morning and once in the afternoon, with pharmacologic intervention started 8 weeks after initiation of the experiment), 5 mice in total, which are sacrificed after 16 weeks.
4.1.6 High dose group 2 (HFC-F/G+HH2): high fat feed+high sugar water+L47 60 mg/kg (30 mg/kg*2/d, i.e. once in the morning and once in the afternoon, with pharmacologic intervention started 8 weeks after initiation of the experiment), 5 mice in total, which are sacrificed after 16 weeks.
The concentration of L47 in low dose group was 5 mg/ml; the concentration of L47 in high dose group was 10 mg/ml.
Route of administration: subcutaneous injection.

[5] = week 16, treatment groups vs model group (conclusions)
[6] = week 16, HH2 (L47 30 mg/kg*2/d s.c., started after 8 weeks)
[7] = week 16, HH2 (L47 30 mg/kg*2/d s.c., started after 8 weeks), p<0.001
[8] = week 16, HL2 (L47 10 mg/kg*2/d s.c., started after 8 weeks)
[9] = week 8, treatment groups (HL1, HH1) vs model group
[10] = week 8, treatment groups vs model group
[11] = week 8, vs model group, HL1 (L47 10 mg/kg*2/d s.c. from start)
[12] = week 16, vs model group, HH2 (L47 30 mg/kg*2/d s.c., started after 8 weeks), 30 mg/kg
[13] = week 16, vs model group, HL1 (L47 10 mg/kg*2/d s.c. from start)
[14] = week 16, vs model group, HL2 (L47 10 mg/kg*2/d s.c., started after 8 weeks), p<0.05
[15] = week 16, vs model group, high dose group 1 (L47 30 mg/kg*2/d s.c. from start), 30 mg/kg
[16] = week 8, treatment groups (HL1, HH1)
[17] = week 16, HH1 (L47 30 mg/kg*2/d s.c. from start)
[18] = week 16, HL1 (L47 10 mg/kg*2/d s.c. from start)
[19] = overall conclusion, week 8 and week 16
[20] = overall conclusion, effect better as dose and administration duration increased
[21] = overall conclusion, in a short period of time, dose-dependent

## hepalatide [L47]
[1]; week 8, 90 min after glucose, p<0.05, p<0.01
  blood glucose level in glucose tolerance test: significantly decreased
[1]; week 8, 120 min after glucose, p<0.01
  blood glucose level in glucose tolerance test: significantly decreased
[1]; week 16, 90 min after glucose
  blood glucose level in glucose tolerance test: decreasing trend
[1]; week 16, 120 min after glucose
  blood glucose level in glucose tolerance test: decreasing trend
[1]; [5]
  blood glucose: decreased
[1]; week 16, HH1 (L47 30 mg/kg*2/d s.c. from start), p<0.001
  fasting serum insulin level: significantly decreases
[1]; week 16, HH1 (L47 30 mg/kg*2/d s.c. from start), p<0.05
  insulin resistance HOMA-RI level: significantly decreases
[1]; [6]
  insulin resistance HOMA-RI level: decreasing trend
[1]; [7]
  fasting serum insulin level: significantly decreases
[1]; week 16, HL1 (L47 10 mg/kg*2/d s.c. from start), p<0.001
  fasting serum insulin level: significantly decreases
[1]; week 16, HL1 (L47 10 mg/kg*2/d s.c. from start), p<0.05
  insulin resistance HOMA-RI level: significantly decreases
[1]; [8]
  fasting serum insulin level: decreasing trend
  insulin resistance HOMA-RI level: no significant difference
[2]; at week 20 (so in the source), HH1 (L47 30 mg/kg*2/d s.c. from start), p<0.01
  serum LDL-C level: decreased
[2]; at week 20 (so in the source), HL1 (L47 10 mg/kg*2/d s.c. from start), p≤0.001
  serum LDL-C level: decreased
[2]; at week 20 (so in the source), treatment groups except HH2, vs model group, p<0.01
  serum HDL-C level: decreased
[2]; week 8, HH1 (L47 30 mg/kg*2/d s.c. from start)
  serum LDL-C level: decreased
[2]; week 8, HL1 (L47 10 mg/kg*2/d s.c. from start), p<0.05
  serum TC level: decreased significantly
[2]; [9]
  serum AST level: decreasing trend; also recorded: decreased
  serum TC level: significantly decreased
  serum TG level: significantly decreased
[2]; week 8, treatment groups (HL1, HH1) vs model group, p≤0.001
  serum ALT level: significantly decreased
[2]; [10]
  serum ALB level: decreased
  serum ALP level: no significant difference
  serum HDL level: no significant difference
  serum LDL level: decreased
  serum VLDL level: no significant difference
[2]; [11]
  serum HDL-C level: decreased
  serum LDL-C level: decreased
[2]; [7]
  serum ALB level: slightly decreased
[2]; week 16, HL2 (L47 10 mg/kg*2/d s.c., started after 8 weeks), p<0.001
  serum ALB level: slightly decreased
[2]; week 16, among the groups
  serum ALP level: no significant difference
[2]; week 16, other groups (HL1, HH1)
  serum ALB level: no difference
[2]; week 16, other groups except HL2 (HL1, HH1, HH2) vs model group
  serum VLDL level: increased
[2]; week 16, treatment groups (HL1, HH1, HL2, HH2) vs model group, p<0.001, p<0.001, p≤0.001, p<0.05
  serum TC level: significantly decreased
[2]; week 16, treatment groups vs model group
  serum TG level: did not decrease; also recorded: no significant difference
[2]; [5]
  serum HDL level: decreased
  serum LDL level: decreased
  serum VLDL level: no significant difference
[2]; [12]
  serum ALT level: decreasing trends; also recorded: decreased significantly
  serum AST level: decreasing trends; also recorded: decreased significantly
[2]; [13]
  serum ALT level: did not decrease
  serum AST level: did not decrease
[2]; [14]
  serum ALT level: significantly decreased
  serum AST level: significantly decreased
[2]; [15]
  serum ALT level: did not decrease; also recorded: increasing trends
  serum AST level: did not decrease; also recorded: increasing trends
[3]; week 8, low and high dose groups (HL1, HH1)
  liver HE staining (fat vacuoles, inflammatory cells): only less and smaller fat vacuoles were formed, with less inflammatory cells
[3]; [16]
  liver Oil Red O staining (fat droplet vacuoles): only smaller and less vacuoles
  liver TUNEL staining (apoptosis): effectively improved
[3]; week 8, treatment groups (HL1, HH1) vs model group, p<0.001, p<0.001
  TUNEL semi-quantitative counting (number of apoptotic bodies): significantly decreased
[3]; [17]
  liver HE staining (steatosis, inflammatory cell infiltration): severe steatosis
  liver TUNEL staining (apoptosis): no improvement
  liver Masson staining (fibrous cords): no significant difference
  liver Oil Red O staining (fat accumulation): only slightly reduced
[3]; [6]
  liver TUNEL staining (apoptosis): effectively improved
  liver Masson staining (fibrous depositions): decreased
  liver Oil Red O staining (fat accumulation): significantly reduced
[3]; week 16, HH2 (L47 30 mg/kg*2/d s.c., started after 8 weeks), p<0.01
  TUNEL semi-quantitative counting (number of apoptotic bodies): significantly decreased
[3]; [18]
  liver TUNEL staining (apoptosis): no improvement
  liver Masson staining (fibrous cords): no significant difference
  liver Oil Red O staining (fat accumulation): only slightly reduced
[3]; [8]
  liver TUNEL staining (apoptosis): effectively improved
  liver Masson staining (fibrous depositions): decreased
  liver Oil Red O staining (fat accumulation): significantly reduced
[3]; week 16, HL2 (L47 10 mg/kg*2/d s.c., started after 8 weeks), p<0.01
  TUNEL semi-quantitative counting (number of apoptotic bodies): significantly decreased
[3]; week 16, other groups (HL1, HL2, HH2)
  liver HE staining (steatosis, inflammatory response): slight steatosis and inflammatory response
[4]; [19]
  levels of ALB, HDL and LDL: reduce
  levels of VLDL and ALP: no effect
[4]; [20]
  blood glucose and insulin level: effectively reduce
  insulin resistance: improve
[4]; [21]
  apoptosis (liver): improve
  fibrosis degree of liver: effectively reduce
  levels of ALT and AST: effectively reduce
[4]; overall conclusion, in a short period of time, dose-dependent, improvement reduced as treatment duration extended
  subcutaneous fat, liver fat and serum fat deposition: effectively reduce
[4]; short-term (8 weeks) co-administration or delayed administration, to various degrees
  liver fat accumulation, liver cell damage, insulin resistance and liver fibrosis: improve
